In patent US11684599B2, “Very-long-chain polyunsaturated fatty acids, elovanoid hydroxylated derivatives, and methods of use” (Board of Supervisors of Louisiana State University and …, priority 2017, dated 2023):

Legend:
[1] = tested on: ARPE-19 cells under UOS; test: Western blot of pro-survival and pro-apoptotic proteins in RPE cells under UOS; type: cell-based, human; details: for Prohibitin (type-1) expression: sodium salts and methyl ester forms, concentration-dependent 100-200 nM; for pro-apoptotic Bax / pro-apoptotic Bid / pro-apoptotic Bim: sodium salts or methyl esters
Protocol: ARPE19 cells at 75-80% confluence (72 h growth in DMEM/F12+10% FBS) in 6-well plates were serum-starved for 8 h before exposure. The serum-starved cells were treated with TNF-α (Sigma-Aldrich, St. Louis, Mo.) (10 ng/ml) and H2O2 (600 μM) to induce oxidative stress and challenged with increasing concentrations (50-500 nM) of VLC-PUFA (C32:6n3 and C34:6n3) simultaneously with oxidative stress for 16 h (apoptosis) and 6 h (Western-blot) before detection of apoptosis and harvesting for protein analysis. In some experiments, DHA at a concentration of 100 nM and 15-LOX-1 inhibitor PD146176 at a concentration of 1 μM was added to treat the RPE cells under stress. Cell extracts were made and protein concentrations adjusted by Bio-Rad (Hercules, Calif.) protein reagent and used for Western blot analysis.
Bcl-2 family proteins, SIRT1 and Proinhibitin (type-1), and Iduna proteins were analyze by Western blot analysis. In brief, 20-25 μg equivalents of each cell extracts were subject to electrophoresis on a 4-12% gel (Promega) at 125 V for 2 h. The proteins were transferred to nitrocellulose membrane by I-blot transfer apparatus. The membranes were subjected to treatment with primary antibodies specific for Bcl-2, Bcl-xL, Bax, Bid, Bim, SIRT1 and Prohibitin (type-1) (Santa Cruz Biotechnology) and Iduna antibody (Neuro-Mab Lab, UCLA, Los Angeles, Calif.) overnight at 4° C. and probed for 45 mins with secondary antibody, goat anti-mouse Ig:horseradish peroxidase, and horseradish peroxidase-conjugated anti-biotin antibody, and then proteins were evaluated by using an ECL kit (Amersham).

[2] = tested on: cerebral-cortical mixed neuronal cells and hippocampal neurons; test: NMDA excitotoxicity of neurons in culture, cell viability; type: cell-based, rat
Excerpt: Primary cultures of cortical and hippocampal neurons were harvested from 18-day-old embryos (E18) taken from timed-pregnant, two-month-old Sprague-Dawley (SD) rats (Charles River Lab., Wilmington, Mass.). Briefly, timed-pregnant SD rats were euthanized and embryos were collected in sterile conditions. Embryonic brains were dissected out by forceps on ice and placed in a petri dish containing ice-cold Hank's Balanced Salt Solution (HBSS) (GIBCO). Meninges were removed under a dissecting microscope and cortical tissues were chopped into small pieces with micro-spring scissors. These tissues were transferred to 15 ml tubes containing trypsin-EDTA (0.025% in HBSS) and DNase I. The tubes were incubated in 37° C. chamber for 15 mins and were agitated every 5 mins. After stopping the trypsinization with 5 ml 10% FBS, these tissues were triturated 15 times with a fire polished Pasteur pipet. Cell clumps were left to settle for 2 mins and the supernatant was transferred to a 15 ml Eppendorf tube. The supernatant was filtered through a 70 μm pore-sized filter (Corning cell strainer) and centrifuged for 5 mins at 1000 rpm. The cells were then resuspended in Neurobasal medium (GIBCO) containing 2% B27 (GIBCO) and 2% N2 (GIBCO) supplements, along with 0.5 mM glutamine, 50 U/ml penicillin/streptomycin.
Cells were counted using a Neubauer hemocytometer. 1×10^6 cells were seeded on poly-D-lysine-coated 12 well cell culture dish (CORNING) and cultured in incubator (37° C., 5% CO2). Culture medium was first replaced after 24 h, then half of the medium was replaced with fresh medium every three days. As a result, approximately, 90% purity of neurons was obtained as determined by class-III-β tubulin, GFAP and Hoechst 33258 staining. Cells were maintained in culture for about 2 weeks until they were exposed to uncompensated oxidative stress, OGD, or NMDA excitotoxicity.
After 90 mins of OGD exposure, cells were returned to the original medium (Neurobasal medium (GIBCO) containing 2% B27 (GIBCO) and 2% N2 (GIBCO) supplements, along with 0.5 mM glutamine, 50 U/ml penicillin/streptomycin) and placed in a normoxic chamber (37° C., 5% CO2) for 2 h. Then the medium was changed with medium containing either ELV-N32 or ELV-N34 [500 nM] and maintained in a normoxic chamber (37° C., 5% CO2) for 12 h, after which cells were sampled and assayed for cell viability using different methods as previously described (25-28). Cerebral cortical mixed neuronal cells or hippocampal cells in culture were exposed to either NMDA or uncompensated oxidative stress (UOS) for 12 h by addition of either NMDA (25 μM, 50 μM, or 100 μM) concentration or by the addition of TNFα (10 ng/mL) and H2O2 (50 μM, 100 μM, or 200 μM). Cell viability and neuroprotection in the presence of ELV-N32, ELV-N34, 32:6, or 34:6 were assayed after 12 h.
Cells were washed with 1× Dulbecco's Phosphate Buffered Saline (DPBS) containing no calcium or magnesium (GIBCO) and fixed for 10 mins using ice-cold 4% paraformaldehyde (PFA) followed by 15 mins incubation in 100% methanol. Cells were washed with 1× Phosphate Buffered Saline (PBS) pH 7.4 (GIBCO) and incubated in PBS containing 20 μM Hoechst 33258 (Molecular Probes) for 20 mins. Cells were then washed 3 times with 1×PBS and stored in 1×PBS at 4° C. until they were imaged for microscopy.
One 4×4 tile mosaic was acquired from the center of each well using a Zeiss 510 Meta laser confocal microscope and LSM 510 Meta software. Images were imported into image analysis software ImageJ (National Institutes of Health, Bethesda, Md.) and batch processed using custom macros. An Otsu auto threshold was applied to each image of Hoechst-stained nuclei, and the area of each detected object was recorded. Objects with areas <10 μm^2 were excluded from analysis. To estimate percentage non-pyknotic nuclei, a size cutoff value was chosen above which objects were assumed to be non-pyknotic. […]

[3] = tested on: primary human RPE cells; test: UOS-induced cell death in primary human RPE cells (Hoechst staining); type: cell-based; details: NPD1 200 nM, 16 h; H2O2 (800 μM) alone 50% cell death
Protocol: Primary human retinal pigment epithelia (RPE) cells, prepared from donor eyes without eye pathology, were plated and transformed after passage eight. Cells were cultured in T75 flasks in MEM medium containing 10% FBS, 5% NCS, MEM-NEAA (ThermoFisher Scientific, Waltham, Mass.), 1× penicillin/streptomycin and 10 ng/ml FGF at 37° C. 5% CO2, 99% relative humidity for 24-48 h followed by a 24-h incubation with 10 μM free 32:6 and 34:6 fatty acid mixture.
For cell viability assay experiments hRPE cells were treated concomitantly with NPD1 (200 nM), 32-6, 34-6 (3 μM each) fatty acids or both 32-6 and 34-6 simultaneously. The hRPE medium was supplemented with 3 μM of 32-6 and 34-6 for the entire duration of the experiment. 15 lox-1 inhibitor (10 μM) was added to the cells 1 hour prior the OS induction and kept throughout the experiment. Cells were fixed with 4% PFA and stained with Hoescht.
To assess cell death, hRPE and ARPE-19 cells were fixed with methanol for 15 mins, washed with 1×PBS then loaded with 2 μM Hoechst dissolved in a Locke's solution (Promega) and incubated for another 15 mins before imaging. Cells were then viewed by using a Zeiss LSM 510 confocal microscope under UV fluorescence. Images were recorded and cell apoptosis was assessed by using an automated unbiased method.

[4] = tested on: ARPE-19 cells; test: UOS-induced apoptosis in ARPE-19 cells (Hoechst-positive pyknotic cells); type: cell-based, human; details: 1 μM, RPE cells undergoing UOS
Protocol: FIGS. 6A and 6B depicts immunostaining of primary human RPE cells using specific markers ZO-1 (Zona occludens-1), RPE65, MITF (Micro-ophtalmia-associated Transcription Factor) and β-catenin, as well as light microscopy depicting primary human RPE cell morphology at different passages in culture. ARPE-19 cells were grown and maintained in T-75 mM flasks in DMEM F-12 medium containing 10% FBS and incubated at 37° C. with a constant supply of 5% CO2. Cells at 75-80% confluence (72 h growth in DMEM/F12+10% FBS) in 6-well plates were serum-starved for 8 h before exposure. The serum-starved cells were treated with TNF-α (Sigma-Aldrich, St. Louis, Mo.) (10 ng/ml) and H2O2 (600 μM) to induce oxidative stress and challenged with increasing concentrations (50-500 nM) of VLC-PUFA (C32:6n3 and C34:6n3) simultaneously with oxidative stress for 16 h (apoptosis) and 6 h (Western-blot) before detection of apoptosis and harvesting for protein analysis. In some experiments, DHA at a concentration of 100 nM and 15-LOX-1 inhibitor PD146176 at a concentration of 1 μM was added to treat the RPE cells under stress. Cell extracts were made and protein concentrations adjusted by Bio-Rad (Hercules, Calif.) protein reagent and used for Western blot analysis. To assess cell death, hRPE and ARPE-19 cells were fixed with methanol for 15 mins, washed with 1×PBS then loaded with 2 μM Hoechst dissolved in a Locke's solution (Promega) and incubated for another 15 mins before imaging. Cells were then viewed by using a Zeiss LSM 510 confocal microscope under UV fluorescence. Images were recorded and cell apoptosis was assessed by using an automated unbiased method.

Molecule | Prohibitin (type-1) expression [1] | pro-apoptotic Bax [1] | pro-apoptotic Bid [1] | pro-apoptotic Bim [1] | also measured
CC/C=C\C[C@H](O)\C=C/C=C/C=C/[C@H](O)C/C=C\C/C=C\CCCCCCCCCCCCC(=O)O [ELV-N32, (14Z,17Z,20R,21E,23E,25Z,27S,29Z)-20,27-dihydroxydo-triaconta-14,17,21,23,25,29-hexaenoic acid] | upregulated | decreased | decreased | decreased | 
CC/C=C\C[C@H](O)\C=C/C=C/C=C/[C@H](O)C/C=C\C/C=C\CCCCCCCCCCCCCCC(=O)O [ELV-N34, (16Z,19Z,22R,23E,25E,27Z,29S,31Z)-22,29-dihydroxytetra-triaconta-16,19,23,25,27,31-hexaenoic acid] | upregulated | decreased | decreased | decreased | NMDA-induced neuronal death ([2]; ELV (Na or Me) 200 nM or 500 nM added along with NMDA 25, 50 or 100 μM, 12 h): compensated for
CC/C=C\C[C@H](O)\C=C/C=C/C=C/[C@H](O)C/C=C\C/C=C\CCC(=O)O [NPD1, 10R,17S-dihydroxy-docosa-4Z,7Z,11E,13E,15Z,19Z-hexaenoic acid] |  |  |  |  | apoptosis [3]: 11%
c1ccc2c(c1)SCc1c-2[nH]c2ccccc12 [PD146176, reference compound] |  |  |  |  | effect of 15-LOX-1 inhibitor on ELV-mediated inhibition of apoptosis [4]: compensate for ELV-mediated inhibition of apoptosis; effect of 15-LOX-1 inhibitor on ELV-induced upregulation ([1]; 1 μM, ARPE-19 cells undergoing UOS): blocked these effects
MK801 maleate [reference compound] |  |  |  |  | NMDA excitotoxicity ([2]; 10 μM): overcome
